Results taken from patent US20080113016A1, “Method for Prevention or Treatment of Inflammatory Disease” (priority 2004, published 2008).
Entries after “also recorded” stand apart in the source; their conditions may differ. Read-outs that look alike come from different tables or passages of the source. Marks after values point to notes of the source that are not given here.

Tests used:
[1] = tested on: rats with adjuvant arthritis; experiment: Adjuvant arthritis: radiographic joint damage, semiquantitative score; format: in vivo, rat
Method: (§1) Adjuvant arthritis. Male Lewis rats (150-200 g) were immunized at the base of the tail with 0.1 ml of complete Freund's adjuvant (CFA) on day 0. […] Clinical signs of arthritis generally begin on day 10, and paw swelling was determined every second day by water displacement plethysmometry. […] Prior to daily drug delivery, rats were individually assessed for ability to walk and bear weight on their hind paws. On the day of sacrifice, a probe with a 24 gm bending force was applied to the lateral ankle of each hind paw for 4 s. Animals were graded (0/1) on whether they vocalized. Roentgenograms were obtained of the hind paws to assess bone changes using a semi-quantitative scoring system (demineralization (0 to 2+), ankle and mid-foot erosions (0 to 2+), calcaneal erosion (0 to 1+), heterotopic bone formation (0 to 1+) (maximum possible score=6). Paws were fixed in formalin and decalcified for 2-3 days. Sections from paraffin embedded tissue were stained with hematoxylin and eosin. A synovial inflammation score was determined using a semi-quantitative scale that measures synovial inflammation (0-2+), cartilage integrity (0-2+), bone erosions (0-2+), marrow infiltration (0-2+), proteoglycans loss (0-2+ in safranin 0 stained sections) and extra-articular inflammation (0-2+) (maximum score 12). Subjective assessments were made by an investigator blinded to the drug treatment.

[2] = tested on: synovial IL-1, IL-6 and MMP3 gene expression; experiment: Adjuvant arthritis: joint gene expression by quantitative real time PCR; format: in vivo, rat; details: intrathecal 8 μg daily day 8-20 vs IT saline, hind paws
Method: Rats were immunized with CFA on day 0 and treated daily with intrathecal SB203580 (8 μg) or intrathecal saline beginning on day 8-20. (A) Quantitative real time PCR was performed on the hind paws. Normal rat joints are also shown as a control.
Q-PCR. Ankle joints were excised and trimmed of skin. The tissue was then pulverized and RNA extracted using RNA-STAT-60 and standard techniques. The RNA was reversed transcribed into cDNA using random hexamer primers. TaqMan PCR amplification reactions were carried out in reaction volumes of 25 μl in MicroAmp Optical Plates and MicroAmp Optical Caps using the TaqMan Universal Master Mix with a Perkin Elmer 5700 thermal cycler. Each sample was analyzed in triplicate using 50 ng of cDNA in the reaction. Thermal cycling was initiated with a 2 min incubation at 50° C., followed by 10 min at 95° C. to activate the AmpliTaq polymerase and then 40 cycles of 95° C. for 15 s/60° C. for 1 min. GADPH was used as a loading control for in each sample. The standard curve method was used for quantification as previously described. Boyle, et al. Arthritis Res. Ther. 5:R352-360, 2003.

[3] = tested on: rats with adjuvant arthritis; experiment: Adjuvant arthritis: paw swelling by water displacement plethysmometry; format: in vivo, rat
Method: […] Paw swelling was measured by water displacement plethysmometry.
(§2) Intrathecal (IT) catherization of rats. All animals were handled in accordance with USDA guidelines, and all procedures have been carefully reviewed and approved by the institutional animal subjects committee. Rats (200-300 g) were housed for at least one week before use. Isoflurane anesthesia was used for all surgical procedures. Animals were implanted with an intrathecal (IT) catheter modified from the method previously described. Yaksh, et al. Physiol. Behav. 17:1031-6, 1976. After a six day recovery period, all animals except those that appeared to have sensory or motor abnormalities (less than 5% of the total number) were used for experiments. For IT administration, 10 μl of drug or vehicle followed by 10 μl of isotonic saline was injected through the catheter.
as §1

[4] = tested on: rats with adjuvant arthritis; experiment: Adjuvant arthritis: behavioral pain (vocalization to 24 gm ankle pressure); format: in vivo, rat; details: 24 gm bending force to lateral ankle for 4 s on day 20
Excerpt: The effect of IT SB203580 on the clinical manifestations of adjuvant arthritis was examined. […] Paw swelling was inversely correlated with behavioral analysis as determined by weight bearing in hind limbs.
as §2
Adjuvant arthritis. Male Lewis rats (150-200 g) were immunized at the base of the tail with 0.1 ml of complete Freund's adjuvant (CFA) on day 0. […] Clinical signs of arthritis generally begin on day 10, and paw swelling was determined every second day by water displacement plethysmometry. […] Prior to daily drug delivery, rats were individually assessed for ability to walk and bear weight on their hind paws. […]

[5] = tested on: rats with adjuvant arthritis; experiment: Adjuvant arthritis: histologic joint damage, semiquantitative score; format: in vivo, rat
Method: Rats were immunized with CFA on day 0 and treated daily with intrathecal SB203580 (8 μg) or intrathecal saline beginning on day 8-20. Left panel is vehicle and right panel is SB203580. […] Representative sections are shown illustrating decreased erosions, cartilage damage and synovial inflammation in the treated group.
Adjuvant arthritis. Male Lewis rats (150-200 g) were immunized at the base of the tail with 0.1 ml of complete Freund's adjuvant (CFA) on day 0. Drug (IT or subcutaneous SB203580 or IT vehicle) treatment started on day 8 and continued on a daily basis until day 20. Clinical signs of arthritis generally begin on day 10, and paw swelling was determined every second day by water displacement plethysmometry. […] Prior to daily drug delivery, rats were individually assessed for ability to walk and bear weight on their hind paws. On the day of sacrifice, a probe with a 24 gm bending force was applied to the lateral ankle of each hind paw for 4 s. Animals were graded (0/1) on whether they vocalized. […]

[6] = tested on: spinal nerve ligation; details: administered intrathecally before spinal nerve ligation, cited from earlier work
[7] = intrathecal etanercept 100 or 300 μg q.o.d.

| Molecule | Radiographic joint damage (bone erosions, cartilage loss, demineralization) ([1]; intrathecal 8 μg daily day 8-20, p<0.05) | Radiographic joint damage ([1]; systemic (subcutaneous) treatment, same dose 8 μg) | Synovial IL-1 gene expression [2] | Synovial IL-6 gene expression [2] | MMP3 gene expression ([2]; p<0.05) | Paw swelling ([3]; intrathecal 8 μg daily day 8-20, compared with IT saline or same dose subcutaneously) | Effect in adjuvant arthritis (paw swelling, synovial infiltration, joint destruction) ([3]; same dose (8 μg) delivered systemically (subcutaneous)) | Positive vocalization (animals that vocalize / total number) ([4]; intrathecal (IT) SB203580 8 μg daily day 8-20) | Positive vocalization (animals that vocalize / total number) ([4]; subcutaneous (SC) SB203580 8 μg daily day 8-20) | Histologic joint damage and inflammation (semiquantitative score) ([5]; intrathecal 8 μg daily day 8-20 vs IT saline) | Leukocyte infiltration into synovium ([5]; intrathecal catheter administration) | Radiographic evidence of joint destruction [1, 7] | Paw swelling [3, 7] | Paw swelling ([3]; subcutaneous 50 μg every other day from day 1, day 20) | Paw swelling ([3]; subcutaneous 100 μg every other day from day 1, day 20) | Paw swelling ([3]; subcutaneous 300 μg every other day from day 1, day 20) | Paw swelling on day 20 ([3]; systemic treatment with the same doses as intrathecal) | Allodynia [6] | Increase in spinal cord P-p38 / p38 activation [6] | Increase in spinal cord P-p38 / p38 activation ([6]; listed as etanercept) |
| --- | --- | --- | --- | --- | --- | --- | --- | --- | --- | --- | --- | --- | --- | --- | --- | --- | --- | --- | --- | --- |
| C[S+]([O-])c1ccc(-c2nc(-c3ccncc3)c(-c3ccc(F)cc3)[nH]2)cc1 (centres unmarked) [SB203580] | significantly decreased | no effect | significantly decreased | significantly decreased | significantly decreased | significantly decreased; also recorded: markedly suppressed | no effect | 0/6** | 4/6 | significantly decreased | decreased |  |  |  |  |  |  |  |  |  |
| Etanercept |  |  |  |  |  |  |  |  |  |  |  | significantly decreased | significantly decreased | 1.51 ± 0.20 mL | 1.75 ± 0.18 mL | 1.67 ± 0.16 mL | no effect | inhibits | blocks | inhibits |
